Measurements: PMC5357639 (Frontiers in Chemistry, 2017)
Where a SMILES comes first, the peptide text is derived from it. The star is where a group is joined. Orn(α-tetramethylguanidino) = CN(C)C(=N[C@@H](CCCN)C(=O)*)N(C)C

Tests used:
[1] = in vivo; design: species or system CD-1 mice; conditions: iv; for level at 5 min: female, CD-1, mouse, 5 mg/kg; for Time within which peptide is cleared: mouse
Excerpt: (§1) A protocol to quantify Api88, Api137, and their major metabolites was established analog to that of oncocin derivatives, reported recently (Schmidt et al., [2016]). Briefly, an Alliance® 2695 HPLC system was coupled online to an ESI-QqLIT-MS (4,000 QTRAP®) equipped with a TurboV™ ion-spray source and operated in positive ion MRM mode using the Analyst® 1.6 software. Separation was achieved on a Jupiter C18-column (internal diameter 1 mm, length 150 mm, particle size 5 μm, pore size 300 Å) at 55 °C using a linear 5-min gradient from 2.7 to 20.7% aqueous acetonitrile containing ammonium formate (26 mmol/L, pH 3.0). Further details about instrumentation, MRM optimization, and MS settings are provided as Supplementary Material (Tables S1–S4, Method M1).
Female CD-1 mice (20–23 g weight, 7 weeks) were injected intravenously (10 mL/kg) in the tail vein with peptides (0.5 g/L) dissolved in sterile saline (0.9%, w/v) corresponding to doses of 5 mg/kg body weight. Animals (n = 4 per time point and peptide) were euthanized 5, 10, 20, 40, and 60 min post-injection by carbon dioxide inhalation and exsanguination. For further details of sample preparation and recovery experiments see Supplementary Material (Methods M2, M3).
(§2) Method M1: M ultiple reaction monitoring (MRM) transitions for apidaecin peptides Peptides (1 µ g/ m L ) were dissolved inaqueous acetonitrile (25% or 60% v/ v) containing either formate buffer (26 mmol/ L, pH 2.6, 3.0, 3.3 or 3.9 ) or formic acid (0.1% v/v ) and infused (flow rate 5 µ L/min, PHD 2600 s yringe pump) into the ES I-Q q L IT -MS (4000 QTRAP®) to optimize buffer composition and MRM. Transitions were selected from the tandem mass spectra (MS/MS) and confirmed on an ESI-QqTOF-MS (QSTAR® pulsar I) providing higher mass resolutions and mass accuracies than the QTRAP ®. The settings for declustering potential (DP), collision potential (CE), and collision cell exit potential (CXP) were optimized by ramping the respective pot entials using the compound optimization tool of the Anal yst® software.
(§3) Method M2: Sample preparation
Frozen organs (5 per group) wer e homogenized in sterile PBS (500 µ L) containing Protease Inhibitor Mix M (1% v/v; SERVA Electrophoresis GmbH, Heidelberg, German y) using an Ultra-Turr ax ® T25 basic (IKA-Werke, Staufen, German y, rotational speed 21,500 min-1) for 1 min. […]
Limits of detection (LOD) and quantification (LOQ) corresponded to the lowest peptide concentrations in water, plasma, or homogenates of brain, liver , and kidney providing a peak height exceeding the noise in the retention time window at least threefol d (LOD) or ten times (LOQ). Recover y r ates o f SPE and matrix effects were determined b y the p eak areas of spiked

[2] = in vitro; format: in vitro ADME, CD-1 mice; conditions: female, CD-1, mouse, cerebrospinal or other body fluid
Method: Peritoneal lavage (1.5–2 mL) were collected from three euthanized female CD-1 mice (14 weeks, 32–33 g) after injecting sterile PBS intraperitoneal (4 mL). Peptides were incubated with aliquots (95 μL) of fresh lavage (75 μg/mL, 37°C, 750 rpm). After 0, 30, and 60 min trichloroacetic acid (25 μL, 15% w/v) was added to the samples to precipitate proteins, incubated on ice (10 min), and centrifuged (5 min, 12.400 × g). Supernatants were neutralized with sodium hydroxide (1 mol/L) and analyzed by RP-HPLC using a Poroshell 120 SB-C18-column (2.1 mm internal diameter, 100 mm length, 2.7 μm particle size, 12 nm pore size, Agilent Technologies Inc., Santa Clara, CA, USA) at 60°C and an aqueous acetonitrile gradient containing trifluoroacetic acid (0.1%, v/v). Absorbance was recorded at a wavelength of 214 nm.

[3] = Organ distribution (blood, kidney, liver and brain homogenates, urine) after intraperitoneal administration; format: in vivo, NMRI mice; conditions: for Peptide level in brain homogenates (not detected, less than LOD) / Concentration in urine / Peptide level in brain (not detected, LOD converted to brain weight) / Recovered peptide amount in kidneys of treated animals / Recovery rate in blood relative to the injected peptide amount: mouse, in vivo, ip
Excerpt: as §1
Female NMRI mice (8–9 weeks, 25–35 g) were injected intraperitoneally (10 mL/kg) with peptides dissolved in sterile PBS (Gibco® Life Technologies™, Darmstadt, Germany) at concentrations of 0.5 or 2 g/L corresponding to doses of 5 or 20 mg/kg body weight, respectively. After 10, 20, 30, 60, or 90 min animals (n = 7) were euthanized by carbon dioxide inhalation and terminal bleeding via cardiac puncture. Lithium-heparin plasma (n = 7) was prepared and stored at −80°C. Immediately after the final bleed, mice were perfused through the left ventricle with saline (0.9%, 50 mL, ~3 min) to remove blood from all organs controlled by discoloration of the liver. Organs were removed aseptically and directly frozen in liquid nitrogen. Spontaneously released urine was collected and frozen immediately at −80°C.
as §2, §3
Frozen organs (5 per group) wer e homogenized in sterile PBS (500 µ L) containing Protease Inhibitor Mix M (1% v/v; SERVA Electrophoresis GmbH, Heidelberg, German y) using an Ultra-Turr ax ® T25 basic (IKA-Werke, Staufen, German y, rotational speed 21,500 min-1) for 1 min. Homogenates were sonicated on ice (35% amplitude, mode: 5 s on; 5 s off for 1 min; Vibra-cell™ 75041, Thermo Fisher Scientific) to disrupt cells. After centrifugation (15 min, 21,460 x g, 4°C) the supernatants were stored at - 80°C.
Aliquots of plasma (10 µL) or liver (10 µ L), kidney (50 µ L), and brain hom ogenates (100 µ L) were spiked with isotope -labeled Api88, Api137, Api1- 16, and Api1- 17 (2.5 µ g/ m L). The samples were diluted fourfold with aqueous phosphoric acid (3.4% v/v), loaded on an Oasis H LB 9 6 -well solid phase extraction (SPE) plate (5 mg sorbent, Waters ), washed with aqueous methanol (0.3 m L, 5% v/ v), eluted with methanol (0.3 m L), and dried in a vacuum centrifuge (30 °C; SpeedVac, Eppendorf ). The samples were dissolved prior analysis in aqueous acetonitrile (3% v/v) containing formic acid (0.1 % v/v).
Stock solutions (1 g/L) of the peptides and their corresponding isotope-labelled internal standards were prepared and diluted in water. Calibration and validation mixtures (10 µL) of unlabeled (0.025, 0.1, 0.5 or 2.5 µg/m L) and isotope-labeled peptides ( 2.5 µ g/ m L ) w ere mix ed with plasma or organ homogenates (10 to 100 µL) obtained from untreated animals fo r […]
Limits of detection (LOD) and quantification (LOQ) corresponded to the lowest peptide […]

| SMILES | level at 5 min [1] | Time within which peptide is cleared [1] | remaining at 1 h, 75 μg/mL [2] | Peptide level in brain homogenates (not detected, less than LOD) ([3]; female, NMRI) | Concentration in urine ([3]; female, NMRI, 20 mg/kg) | Peptide level in brain (not detected, LOD converted to brain weight) [3] | Recovered peptide amount in kidneys of treated animals [3] | Recovery rate in blood relative to the injected peptide amount [3] | Concentration in urine ([3]; 5 mg/kg) | half-life at 75 μg/mL [2] | Kidney concentration estimated from detected peptide amount ([3]; estimating the volume of both kidneys as 0.5 mL) |
| --- | --- | --- | --- | --- | --- | --- | --- | --- | --- | --- | --- |
| CC[C@H](C)[C@H](NC(=O)[C@H](Cc1ccc(O)cc1)NC(=O)[C@@H](NC(=O)[C@@H]1CCCN1C(=O)[C@H](CCCNC(=N)N)NC(=O)[C@H](CC(N)=O)NC(=O)[C@H](CC(N)=O)NC(=O)[C@H](CCCN)N=C(N(C)C)N(C)C)C(C)C)C(=O)N1CCC[C@H]1C(=O)N[C@@H](CCCNC(=N)N)C(=O)N1CCC[C@H]1C(=O)N[C@@H](CCCNC(=N)N)C(=O)N1CCC[C@H]1C(=O)N1CCC[C@H]1C(=O)N[C@@H](Cc1c[nH]cn1)C(=O)N1CCC[C@H]1C(=O)N[C@@H](CCCNC(=N)N)C(=O)N[C@@H](CC(C)C)C(N)=O [Api88] ({Orn(α-tetramethylguanidino)}-NNRPVYIPRPRPPHPRL-NH2) | 1000 ng/mL | ~ 60 min | > 60% | < 43 ng/mL homogenate | ~ 0.2 μg/mL | < 89 μg/g brain | 1.8 µg/g | below 1% | below LOD | – | – |
| CC[C@H](C)[C@H](NC(=O)[C@H](Cc1ccc(O)cc1)NC(=O)[C@@H](NC(=O)[C@@H]1CCCN1C(=O)[C@H](CCCNC(=N)N)NC(=O)[C@H](CC(N)=O)NC(=O)[C@H](CC(N)=O)NC(=O)[C@H](CCCN)N=C(N(C)C)N(C)C)C(C)C)C(=O)N1CCC[C@H]1C(=O)N[C@@H](CCCNC(=N)N)C(=O)N1CCC[C@H]1C(=O)N[C@@H](CCCNC(=N)N)C(=O)N1CCC[C@H]1C(=O)N1CCC[C@H]1C(=O)N[C@@H](Cc1c[nH]cn1)C(=O)N1CCC[C@H]1C(=O)N[C@@H](CCCNC(=N)N)C(=O)N[C@@H](CC(C)C)C(=O)O [Api137] ({Orn(α-tetramethylguanidino)}-NNRPVYIPRPRPPHPRL-OH) | 400 ng/mL | ~ 60 min | – | < 18 ng/mL homogenate | – | < 37 μg/g brain | 2.4 µg/g | below 1% | – | ~20 min | 4.8 µg/mL |
